Test results taken from patent EP1262190A1, “RFRP-CONTAINING PROLACTIN SECRETION REGULATORY AGENT” (Takeda Chemical Industries, Ltd., priority 2000, dated 2001).
Where no end group is shown, it is not given here.

Tests used:
[1] = biological target: T1, r0T7T022L receptor-expressing CHO cells (Rattus norvegicus, UniProt Q9EP86); assay: Reaction of receptor-expressing CHO cells with peptides in the cytosensor (acidification rate); type: cell-based; settings: peptide exposure for 7 minutes and 2 seconds, FIG. 8
T1 construct: expressed in transfected cells; host or cells: CHO cells
Excerpt: The r0T7T022L receptor-expressing CHO cells obtained in REFERENCE EXAMPLE 7 (2) above were inoculated on capsules for cytosensor in 2.7 x 10^5 cells/capsule. After culturing overnight, the cytosensor was mounted to a work station for the cytosensor. A medium for assay (low buffered RMPI1640 medium supplemented with 0.1% bovine serum albumin), that was set in the flow path of the cytosensor, was supplied to the cells in a pump cycle of ON (80 seconds) and OFF (40 seconds). A rate of change in […] from 8 to 30 seconds after the pump stopped was calculated as an acidification rate. A change of the acidification rate with passage of time was monitored; when stable reading was obtained, the flow path was switched to expose each peptide to the cells for 7 minutes and 2 seconds. In the acidification rate of each well, the data for 3 cycles immediately before the peptide exposure was made 100% for standardization.

[2] = biological target: T2, Human 0T7T022 receptor-expressing CHO cells (Homo sapiens, UniProt Q9GZQ6); assay: Agonist activity of RF amide peptides: inhibition of forskolin-increased cAMP in human 0T7T022 receptor-expressing CHO cells; type: cell-based; settings: 1 µM forskolin, 37°C for 30 minutes, FIG. 14
T2 construct: expressed in transfected cells; host or cells: CHO cells
Procedure: Human 0T7T022 receptor-expressing CHO cells obtained by a modification of the method described in WO 00/29441 were inoculated on a 24-well plate in a concentration of 3 x 10^5 cells/well. After incubation overnight, the cells were rinsed with Hanks' buffer (HBSS) supplemented with 0.05% BSA and 0.2 mM IBMX, and then preincubated at 37°C for 30 minutes in the same buffer. Next, the buffer was exchanged by Hanks' buffer (HBSS) supplemented with 0.05% BSA and 0.2 mM IBMX, or HBSS further added with 1 µM forskolin only, or HBSS added with 1 µM forskolin and peptide of various concentrations, followed by incubation at 37°C for 30 minutes. After completion of the incubation, cAMP in the cells of each well was extracted and quantified according to the method of cAMP EIA Kit (Amersham Inc.). An inhibition rate of the increased cAMP level in the cells by the forskolin treatment was calculated with the respective concentrations of the peptide.

[3] = biological target: T2, Human 0T7T022 receptor-expressing CHO cells; assay: Effect of pertussis toxin on activation of human 0T7T022 receptor by RFRP peptide (cAMP production inhibition); type: cell-based; settings: 0.1 µM peptide, 1 µM forskolin, cells treated with 100 ng/ml pertussis toxin, FIG. 15
Procedure: Human 0T7T022 receptor-expressing CHO cells obtained in EXAMPLE 8 were inoculated on a 24-well plate in a concentration of 1 x 10^5 cells/well. After culturing overnight, the medium was exchanged by a medium added with 100 ng/ml pertussis toxin (Sigma, Inc.) or with a control medium followed by further incubation overnight. The cells were rinsed with Hanks' buffer (HBSS) supplemented with 0.05% BSA and 0.2 mM IBMX and then preincubated at 37°C for 30 minutes in the same buffer. Next, the cells were incubated at 37°C for 30 minutes after the buffer was exchanged by Hanks' buffer alone (HBSS) supplemented with 0.05% BSA and 0.2 mM IBMX (black column), or by HBSS further added with 1 µM forskolin only (white column), or by HBSS added with 1 µM forskolin and 0.1 µM RFRP-1-12 (peptide having the 81 (Met) to 92 (Phe) amino acid sequence in SEQ ID NO:1) (hatched column). After completion of the incubation, cAMP in the cells of each well was extracted and quantified according to the method of cAMP EIA Kit (Amersham, Inc.).

[4] = system: pituitary hormone level in plasma; assay: Effect of administration into the third ventricle on pituitary hormone level in plasma (radioimmunoassay); type: in vivo, Wistar rats; settings: 10 nmols into the third ventricle; for plasma prolactin level: vs PBS control

T2 sequence (Q9GZQ6 whole entry): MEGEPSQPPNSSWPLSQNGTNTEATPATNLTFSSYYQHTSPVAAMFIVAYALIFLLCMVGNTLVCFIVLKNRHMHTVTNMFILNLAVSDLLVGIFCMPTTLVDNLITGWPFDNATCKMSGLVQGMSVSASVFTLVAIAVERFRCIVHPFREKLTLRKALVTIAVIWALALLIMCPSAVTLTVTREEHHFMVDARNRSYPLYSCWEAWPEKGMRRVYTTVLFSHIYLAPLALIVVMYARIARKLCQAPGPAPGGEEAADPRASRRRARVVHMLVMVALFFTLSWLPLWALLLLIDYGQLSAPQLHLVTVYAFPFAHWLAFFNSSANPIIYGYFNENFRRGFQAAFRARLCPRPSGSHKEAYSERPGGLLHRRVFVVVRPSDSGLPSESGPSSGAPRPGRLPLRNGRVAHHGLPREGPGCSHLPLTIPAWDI
T1 sequence (Q9EP86 whole entry): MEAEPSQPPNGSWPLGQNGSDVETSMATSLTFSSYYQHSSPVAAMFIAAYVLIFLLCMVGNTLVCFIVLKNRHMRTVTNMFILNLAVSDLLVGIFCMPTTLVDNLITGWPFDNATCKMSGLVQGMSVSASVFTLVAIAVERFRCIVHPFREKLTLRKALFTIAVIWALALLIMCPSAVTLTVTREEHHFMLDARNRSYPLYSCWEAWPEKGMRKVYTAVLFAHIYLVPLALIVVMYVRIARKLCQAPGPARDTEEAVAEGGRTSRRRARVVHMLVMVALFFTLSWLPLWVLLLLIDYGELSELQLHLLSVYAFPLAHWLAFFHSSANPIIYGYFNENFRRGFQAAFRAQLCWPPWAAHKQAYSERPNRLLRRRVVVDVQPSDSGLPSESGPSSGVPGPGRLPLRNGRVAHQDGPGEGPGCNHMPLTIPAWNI

CC(C)C[C@H](NC(=O)[C@H](CC(N)=O)NC(=O)[C@@H]1CCCN1C(=O)[C@@H](N)C(C)C)C(=O)N1CCC[C@H]1C(=O)N[C@@H](CCC(N)=O)C(=O)N[C@@H](CCCNC(=N)N)C(=O)N[C@@H](Cc1ccccc1)C(N)=O
reaction of r0T7T022L-expressing CHO cells (acidification rate) [1]: strongly showed dose-dependent reaction

Asn-Pro-Phe-Phe [NPFF, reference compound]
ED50 levels (inhibition rate of the increased cAMP level in the cells by the forskolin treatment) [2]: 140 nM

MPHSFANLPLRF-NH2
reaction of r0T7T022L-expressing CHO cells (acidification rate) [1]: strongly showed dose-dependent reaction | cAMP production inhibiting activity [3]: lost | level of ACTH in plasma [4]: none showed any significant change | level of GH in plasma [4]: none showed any significant change | level of LH in plasma [4]: none showed any significant change | level of TSH in plasma [4]: none showed any significant change | plasma prolactin level ([4]; 10 minutes after administration): tended to increase | plasma prolactin level ([4]; 20 minutes after administration): significantly increased | plasma prolactin level ([4]; 30 minutes after administration): significantly increased | plasma prolactin level ([4]; 40 minutes after administration): significantly increased | plasma prolactin level ([4]; 60 minutes after administration): a significant difference was noted

Pro-Gln-Arg-Phe-NH2 (PQRF-NH2) [PQRFamide, reference compound]
ED50 levels (inhibition rate of the increased cAMP level in the cells by the forskolin treatment) [2]: ≥ 1000 nM

hRFRP-1-37: peptide having the 56 (Ser) to 92 (Phe) amino acid sequence in SEQ ID NO:1 (SLNFEELKDWGPKNVIKMSTPAVNKMPHSFANLPLRF; UniProt Q9HCQ7 56-92, looked up, fragment)
ED50 levels (inhibition rate of the increased cAMP level in the cells by the forskolin treatment) [2]: 21 nM

rRFRP-1-37: peptide having the 58 (Ser) to 94 (Phe) amino acid sequence in SEQ ID NO:50 (SVTFQELKDWGAKKDIKMSPAPANKVPHSAANLPLRF; UniProt Q9ESQ9 58-94, looked up, fragment)
ED50 levels (inhibition rate of the increased cAMP level in the cells by the forskolin treatment) [2]: 30 nM
